Where “and” joins values, the source holds several entries; their conditions need not be identical. Equal values may be shown once.
Legend:
[1] = test system: kidney tissues of treated or untreated rats; test: Real-time qRT-PCR of marker transcripts in kidney tissue panel, discovery stage (Table 22); type: in vivo, rat; conditions: rat kidney, listed as Dox
Experimental: Before RT preparation the RNA was treated with DNA-free (Ambion, cat. No. AM1906) DNase treatment and removal—according to manufacturer protocol. DNase procedure was repeated until no DNA is detected in a PCR reaction using the RNA samples.
The mixture is then incubated for 5 min at 65° C. and then quickly chilled on ice. Thereafter, 20 μl of 5× SuperscriptII first strand buffer (Invitrogen, Cat. No. Y00146), 9.6 μl 0.1M DTT (Invitrogen, Cat. No. Y00147) and 160 units RNasin (Promega, Cat. No. N251A) are added, and the mixture is incubated for 10 min at 25° C., followed by further incubation at 42° C. for 2 min. […] The resulting cDNA is diluted 1:20 in TE buffer (10 mM Tris pH=8, 1 mM EDTA pH=8).
cDNA (5 μl), prepared as described above, is used as a template in Real-Time PCR reactions using the SYBR Green I assay (PE Applied Biosystem) with specific primers in 100 nM concentration if not indicated otherwise and UNG Enzyme (Eurogentech or equal) Amplification is effected as follows: 50° C. for 2 min, 95° C. for 10 min, and then 40 cycles of 95° C. for 15 sec, followed by 60° C. for 1 min (if not indicated otherwise). Amplification step is followed by dissociation step. Detection is performed by using the PE Applied Biosystem SDS 7000. The cycle in which the reactions achieved a threshold level (Ct) of fluorescence is registered and is used to calculate the relative transcript quantity in the RT reactions. Non-detected samples are assigned Ct value of 41 and are calculated accordingly. The relative quantity is calculated using the equation Q=efficiencŷ-Ct. The efficiency of the PCR reaction is calculated from a standard curve, created by using serial dilutions of several reverse transcription (RT) reactions. To minimize inherent differences in the RT reaction, the resulting relative quantities are normalized to normalization factor calculated as follows: […]
The relative quantity (Q) of each housekeeping gene in each sample is calculated as described above. In order to calculate the “relative Q relative to MED” each Q for each HSKP gene is divided by the median quantity of this gene in all panel samples. To finally achieve the normalization factor of each sample the geometric mean of all four “relative Q relative to MED” was calculated. The normalization factor was then used for further calculations.
The markers of the present invention were tested with regard to their expression in a panel of kidney tissues samples from treated and control rats. Unless otherwise noted, all experimental data relates to the novel polynucleotides and proteins of the present invention, named according to the segment being tested (as expression was tested through RT-PCR as described). Tests were then performed as described in the “Materials and Experimental Procedures” section above.
The qRT-PCR measurements were normalized according to each samples normalization factor as described in “RT Preparation and Real-Time qRT-PCR Analysis” and further multiplied by a constant factor for ease of viewing.

[2] = test system: kidney tissues of treated or untreated rats; test: Real-time qRT-PCR of signature amplicons, validation stage, labeled and un-labeled samples (Table 23); conditions: for H31883_DB71_seg13 normalized qRT-PCR result / MUSCYCG1R_DB81_seg19-20 normalized qRT-PCR result / W41270_DB81_seg11 normalized qRT-PCR result: labeled sample, one line per animal
From the text: New primers were designed for part of the transcripts, and new conditions for several qRT-PCR reactions were used, as described below.
The measurements were normalized in two steps. First—according to the house-keeping-genes normalization factor, and second—each plate was normalized according to ratio of the intensity measurements from samples appearing in it and in the shuffled (normalization) plate (Table 25 provides the plates details and the section “Inter-Plate Normalization” provides details of the normalization process). The normalized values were further scaled by a factor, for ease of viewing.
RT was prepared and qRT-PCR performed and analyzed as described hereinabove. qRT-PCR was performed for the four genes comprising the signature of the discovery stage described in Table 13. Two amplicons were tested for each gene—one representing the wild-type transcript, and another representing an alternative splice variant. Each amplicon was measured using the labeled samples described in Table 9 herein, as well as the un-labeled samples. Samples from both groups (labeled and un-labeled) were tested in seven 96 well plates as described in Table 25. In order to correct possible run to run variations, the following controls were added: 1. several samples were repeated in all 96 wells plates; 2. control shuffled plate was designed which combined samples from all seven test plates.
To account for possible differences of qRT-PCR measurements between the different plates due to experimental artifacts, a normalization plate was planned. This plate, designated hereinabove ‘shuffled plate’, contained samples from all other plates. Real Time PCR was performed on this plate using the primers appropriate for all candidates in tables 26 and 27. For each other plate (plates 1-7 above) and each amplicon, the samples appearing also in the shuffled plate were examined—the ratio between the transcript abundance as measured in the plate to the abundance as measured in the shuffled plate was calculated, outliers were manually removed, and the geometric mean of the left ratios was taken as an additional multiplicative normalization factor for the plate and amplicon.

[3] = day28, individual animals (F and M)
[4] = day1, female rat kidney, listed as Dox
[5] = day1, male rat kidney, listed as Dox
[6] = day28, female rat kidney, listed as Dox
[7] = day28, male rat kidney, listed as Dox
[8] = labeled samples, day1, kidney of individual male/female rats, listed as Dox
[9] = labeled samples, day5, kidney of individual male/female rats, listed as Dox
[10] = labeled samples, day28, kidney of individual male/female rats, listed as Dox

## COc1cccc2c1C(=O)c1c(O)c3c(c(O)c1C2=O)C[C@@](O)(C(=O)CO)C[C@@H]3O[C@H]1C[C@H](N)[C@H](O)[C@H](C)O1 [Doxorubicin]
[1]; [3]
  RATRAB13X_DB71_seg11-13 normalized Real Time PCR: 0.74 and 0.95 and 1.05 and 0.91 and 0.77 and 0.84
  RNU24174_DB71_seg8 normalized Real Time PCR: 1.99 and 2.06 and 4.39 and 3.5 and 2.2 and 2.91
  W41270_DB81_seg11 normalized Real Time PCR: 0.84 and 0.44 and 0.77 and 1.64 and 0.54 and 0.5
  W64472_DB81_seg2 normalized Real Time PCR: 0.8 and 0.69 and 1.73 and 1.71 and 0.83 and 1.15
  W83813_DB81_seg27 normalized Real Time PCR: 0.58 and 0.61 and 0.63 and 0.51 (2×) and 0.55
[1]; day28, individual animals
  AA686189_DB71_seg6 normalized Real Time PCR expression: 1.5 and 0.62 and 0.04 and 6.37 and 0.92 and 1.28
  AI045075_DB71_seg6 normalized Real Time PCR expression: 0.66 and 0.82 and 1.6 and 1.49 and 0.9 and 0.87
  AI454051_DB71_seg0 normalized Real Time PCR expression: 0.85 and 0.92 and 0.87 and 0.96 and 1.11 and 0.72
  H31045_DB71_seg5 normalized Real Time PCR expression: 2.16 and 2.58 and 0.51 and 1.57 and 2.33 and 2.12
[2]; [4]
  H31883_DB71_seg13 normalized qRT-PCR result: 2.054 and 1.752 and 1.003
  MUSCYCG1R_DB81_seg19-20 normalized qRT-PCR result: 1.631 and 1.268 and 0.741
  W41270_DB81_seg11 normalized qRT-PCR result: 1.548 and 1.367 and 0.977
[2]; [5]
  H31883_DB71_seg13 normalized qRT-PCR result: 0.956 and 0.936 and 0.964
  MUSCYCG1R_DB81_seg19-20 normalized qRT-PCR result: 1.257 and 1.622 and 1.454
  W41270_DB81_seg11 normalized qRT-PCR result: 1.26 and 2.478 and 1.45
[2]; [6]
  H31883_DB71_seg13 normalized qRT-PCR result: 0.734 and 0.719 and 0.955
  MUSCYCG1R_DB81_seg19-20 normalized qRT-PCR result: 0.964 and 0.653 and 0.54
  W41270_DB81_seg11 normalized qRT-PCR result: 2.157 and 1.462 and 1.023
[2]; [7]
  H31883_DB71_seg13 normalized qRT-PCR result: 0.686 and 0.442 and 0.586
  MUSCYCG1R_DB81_seg19-20 normalized qRT-PCR result: 0.669 and 1.434 and 0.785
  W41270_DB81_seg11 normalized qRT-PCR result: 1.613 and 3.226 and 1.604
[2]; [8]
  H31883_DB71_seg13 normalized qRT-PCR expression (Cyclin-G1 (CCNG1) transcript): 0.993 and 1.283 and 1.41 and 1.46 and 1.116
  MUSCYCG1R_DB81_seg19-20 normalized qRT-PCR expression: 1.387 and 1.761 and 2.256 and 1.516 and 1.627 and 1.551
  W41270_DB81_seg11 normalized qRT-PCR expression (tumor necrosis factor receptor superfamily, member 12a transcript): 0.824 and 1.286 and 1.43 and 1.148 and 1.501 and 0.935
[2]; [9]
  AI045075_DB71_seg6 normalized qRT-PCR expression (Interferon stimulated exonuclease 20 (ISG20) transcript): 1.248 and 1.348 and 1.319 and 1.844
  H31883_DB71_seg13 normalized qRT-PCR expression (Cyclin-G1 (CCNG1) transcript): 2.129 and 0.905 and 2.586 and 1.227 and 1.377
  MUSCYCG1R_DB81_seg19-20 normalized qRT-PCR expression: 1.321 and 1.723 and 1.536 and 2.913 and 1.438
  W41270_DB81_seg11 normalized qRT-PCR expression (tumor necrosis factor receptor superfamily, member 12a transcript): 1.017 and 1.053 and 1.551 and 1.791 and 0.851
  W64472_DB81_seg2 normalized qRT-PCR expression (Interferon stimulated exonuclease 20 (ISG20) transcript): 2.03 and 2.924 and 1.441 and 3.4 and 2.561
[2]; [10]
  H31883_DB71_seg13 normalized qRT-PCR expression (Cyclin-G1 (CCNG1) transcript): 1.328 and 1.54 and 1.434 and 1.642 and 1.611 and 1.408
  MUSCYCG1R_DB81_seg19-20 normalized qRT-PCR expression: 0.985 and 2.342 and 1.437 and 1.991 and 2.105 and 1.779
  W41270_DB81_seg11 normalized qRT-PCR expression (tumor necrosis factor receptor superfamily, member 12a transcript): 1.263 and 0.73 and 2.381 and 1.44 and 0.652 and 0.787
[2]; rat, in vivo
  Label: true label (Normal/Toxic), known renal toxic effect: Toxic

From US20160177395A1, “BIOMARKERS FOR THE PREDICTION OF RENAL INJURY” (priority 2007, published 2016)
